Experimental data as given in the supplement of paper PMC9663587.

Key:
[1] = compound: T1, C=CC(=O)Nc1ccc(C(=O)Nc2[nH]nc3c2CN(C(=O)N[C@H](CN(C)C)c2ccccc2)C3(C)C)cc1 [YKL-5-124]
[2] = compound: CCC(=O)Nc1ccc(C(=O)Nc2ccc(Nc3ncc4c(n3)N(C)c3ccc(C)cc3C(=O)N4C)cc2)cc1 [FMF-03-145-1]
[3] = compound: CO[C@H]1C[C@@H]2CC[C@@H](C)[C@@](O)(O2)C(=O)C(=O)N2CCCC[C@H]2C(=O)O[C@H]([C@H](C)C[C@@H]2CC[C@@H](OCCO)[C@H](OC)C2)CC(=O)[C@H](C)/C=C(\C)[C@@H](O)[C@@H](OC)C(=O)[C@H](C)C[C@H](C)/C=C/C=C/C=C/1C [Everolimus]
[4] = compound: COc1cccc(OCCCN)c1-c1cc(Nc2cnc(C#N)cn2)n[nH]1
[5] = compound: T1, YKL-5-124; assay: increase in dead-cell fraction, 72 h; higher = more death;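 note: breast cancer cell lines in 384-well plates, stained with Hoechst plus LIVE/DEAD far red dye and imaged, cells above an LDR intensity threshold counted dead, Hoechst-negative corpses included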
[6] = compound: CN(C)C/C=C/C(=O)Nc1ccc(C(=O)N2CCC[C@@H](Nc3ncc(Cl)c(-c4c[nH]c5ccccc45)n3)C2)cc1 [THZ531]; assay: as above
[7] = compound: CC1=C(N=C(N=C1N)[C@H](CC(=O)N)NC[C@@H](C(=O)N)N)C(=O)N[C@@H]([C@H](C2=CN=CN2)OC3C(C(C(C(O3)CO)O)O)OC4C(C(C(C(O4)CO)O)OC(=O)N)O)C(=O)N[C@H](C)[C@H]([C@H](C)C(=O)N[C@@H]([C@@H](C)O)C(=O)NCCC5=NC(=CS5)C6=NC(=CS6)C(=O)NCCC[S+](C)C)O [Bleomycin]; settings: main component drawn
[8] = compound: CC[C@@]1(O)C(=O)OCc2c1cc1n(c2=O)Cc2cc3c(CN(C)C)c(O)ccc3nc2-1 [Topotecan]
[9] = compound: COc1cc([C@@H]2c3cc4c(cc3[C@@H](O[C@@H]3O[C@@H]5CO[C@@H](C)O[C@H]5[C@H](O)[C@H]3O)[C@H]3COC(=O)[C@H]23)OCO4)cc(OC)c1O [Etoposide]
[10] = compound: N.N.Cl[Pt]Cl [Cisplatin]
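Throughout, for GR50, 72 h: breast cancer and non-malignant breast epithelial cell lines, Deep Dye Drop or Dye Drop imaging, nine half-log doses, GR normalized to time-zero plates and DMSO-only controls.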

Cell Line | GR50, 72 h [1] [µM] | GR50, 72 h [2] [µM] | GR50, 72 h [3] [µM] | GR50, 72 h [4] [µM] | increase in dead-cell fraction ([5]; 0.001 µM) | increase in dead-cell fraction ([5]; 0.003162 µM) | increase in dead-cell fraction ([5]; 0.01 µM) | increase in dead-cell fraction ([5]; 0.03162 µM) | increase in dead-cell fraction ([5]; 0.1 µM) | increase in dead-cell fraction ([5]; 0.3162 µM) | increase in dead-cell fraction ([5]; 1 µM) | increase in dead-cell fraction ([5]; 3.162 µM) | increase in dead-cell fraction ([5]; 10 µM) | increase in dead-cell fraction ([6]; 0.0001 µM) | increase in dead-cell fraction ([6]; 0.0003162 µM) | increase in dead-cell fraction ([6]; 0.001 µM) | increase in dead-cell fraction ([6]; 0.003162 µM) | increase in dead-cell fraction ([6]; 0.01 µM) | increase in dead-cell fraction ([6]; 0.03162 µM) | increase in dead-cell fraction ([6]; 0.1 µM) | increase in dead-cell fraction ([6]; 0.3162 µM) | increase in dead-cell fraction ([6]; 1 µM) | GR50, 72 h [7] [µM] | GR50, 72 h [8] [µM] | GR50, 72 h [9] [µM] | GR50, 72 h [10] [µM]
ZR751 | 0.0019 | 0.00573 | < 0.001 | 0.0012 | 0.0021 | 0.0092 | 0.0198 | 0.0185 | 0.014 | 0.0125 | 0.0157 | 0.0241 | 0.0249 | -0.0027 | 0.0028 | -0.0004 | 0.0013 | -0.0036 | 0.0009 | 0.0019 | 0.0013 | 0.151 | – | – | – | –
CAMA1 | – | 0.00649 | – | 0.00063 | 0.0009 | 0.0059 | 0.0122 | 0.0047 | 0.006 | 0.0148 | -0.0034 | 0.01 | 0.322 | 0.001 | -0.0014 | -0.0002 | -0.005 | 0.0035 | 0.0054 | 0.0126 | 0.0499 | 0.189 | 1.69 | 0.00321 | 0.155 | 0.919
HCC1419 | < 0.001 | 0.00703 | – | 0.000648 | 0.0323 | 0.0181 | 0.0297 | 0.0399 | 0.0564 | 0.0505 | 0.0568 | 0.0662 | 0.187 | -0.0026 | -0.0053 | 0.0001 | -0.0057 | -0.0018 | -0.001 | 0.0145 | 0.0751 | 0.14 | 4.04 | 0.00719 | 0.736 | 1.79
BT549 | 0.00293 | – | > 10 | 2.27e-05 | 0.0189 | 0.0362 | 0.097 | 0.158 | 0.169 | 0.169 | 0.196 | 0.228 | 0.614 | 0 | 0 | 0.0005 | 0.0003 | -0.0022 | 0.0026 | 0.0062 | 0.0485 | 0.365 | 0.18 | 0.00847 | 0.181 | 1.02
MDAMB436 | 0.0324 | 0.00578 | > 10 | 0.000612 | -0.0039 | 0.0007 | 0.019 | 0.0153 | 0.0342 | 0.0446 | 0.0289 | 0.027 | 0.132 | -0.0141 | -0.004 | 0.0035 | -0.0059 | -0.0057 | 0.0007 | 0.0043 | 0.0247 | 0.0705 | 0.855 | 0.00594 | 0.26 | 0.417
CAL120 | 0.00898 | 0.00643 | > 10 | 0.000952 | 0.0168 | 0.0283 | 0.0348 | 0.0304 | 0.0343 | 0.0427 | 0.0333 | 0.0461 | 0.0476 | 0.0032 | -0.0012 | -0.0004 | -0.0009 | -0.0022 | 0.0046 | 0.0275 | 0.0465 | 0.0403 | 1.69 | 0.00749 | 0.48 | 2.93
